According to patent publication US10233201B2, “Class of HDAC inhibitors expands the renal progenitor cells population and improves the rate of recovery from acute kidney injury” (University of Pittsburgh—Of the Commonwealth System of …, priority 2012, dated 2019):

How the values were obtained:
[1] = system: myod1 (somites), fli1a (vasculature), ntla (notochord); assay: In situ hybridization for mesodermal markers myod1, fli1a, ntla in 10-somite embryos; type: in vivo, zebrafish
Description: (§1) PTBA was synthesized as described below. Hydroxyurea and aphidicolin were obtained from Sigma-Aldrich.
(§2) In situ hybridization and immunocytochemistry: In situ hybridization was performed as previously described with some modifications. 142 Hybridization temperature was 65° C. Embryos were blocked in 2% blocking reagent (Roche) with 5% sheep serum in MAB (100 mM maleic acid and 150 mM NaCl [pH 7.5]). Whole-mount immunocytochemistry with 1:25 mouse anti-α6F antibody (Developmental Studies Hybridoma Bank) and 1:100 Cy3 secondary antibody (Jackson ImmunoResearch) was performed as described previously. 108 Embryos were embedded in JB-4 for sectioning per the manufacturer's instructions (Polysciences), sectioned at 5 μm, and mounted with Cytoseal 60 (Richard-Allan Scientific).

[2] = system: conditionally-immortalized mouse podocyte cell line; assay: Podocyte cytotoxicity assay (Cell Titer-Blue); conditions: 72 hours, up to 30 μM
Description: For the purposes of these experiments, they function as an indicator of renal toxicity. Following 72 hours of treatment with each compound concentrations ranging from 30 μM to 3 nM, podocyte viability was assessed by measuring residual metabolic activity (FIG. 30).
Mouse podocytes were plated at a density of 6,000 cells per 200 μl in 96-well plates to elicit log-phase growth. The indicated PTBA analogs were added at 30 μM, 10 μM, 1 μM, 300 nM, 100 nM, 30 nM, or 3 nM and incubated at 33° C. for 72 hours. The final DMSO concentration was maintained at 0.2% in all treatments except 30 μM (0.6%). After incubation, cytotoxicity was analyzed using the Cell Titer-Blue Cell Viability Assay (Promega) per manufacturer's instructions. Reagent (20 μl) was added to 100 μl of cells and plates were incubated for 2 hours at 37° C. Fluorescence was read at 79 560Ex/590Em on a Gemini SpectramaxXS (Molecular Devices) plate reader. Viability was calculated as a percentage of the DMSO control, which was considered 100% viability. Data represent the results of three independent experiments using duplicate wells for each condition. E50 values were determined from the transformed and normalized data by non-linear regression.

[3] = system: lhx1a, pax2a, pax8, ntla transcripts; assay: Relative qPCR in the trunk region of 10-somite embryos; type: in vivo, zebrafish; conditions: 3 μM
From the text: Conducted as described in WO 2012109527 and in priority U.S. provisional Patent Application No. 61/720,621.

zebrafish larvae = assay: Phenotypic scoring of edema and survival in zebrafish larvae at 72 hpf; type: in vivo
From the text: as §1
Wild type: no visible edema or developmental delay.

pronephros = assay: Pronephric markers at 48 hpf (cdh17, NaK-ATPase, wt1a, slc4a4, slc12a1); type: in vivo, zebrafish; conditions: 3 μM
Description: as §1, §2

[4] = system: human HDACs (HeLa cell nuclear extract); assay: Fluorescence histone deacetylation assay with HeLa cell nuclear extract; type: biochemical
[5] = system: pax2a, pax8 expression (kidney field); assay: In situ hybridization for renal progenitor markers pax2a, pax8 / kidney field; type: in vivo, zebrafish
Description: as §1, §2

cyp26a1, cmlc2 = assay: In situ hybridization for RA-responsive genes in 18-somite embryos; type: in vivo, zebrafish; conditions: 3 μM
Description: as §2
HDACis are believed to lower the threshold of RA necessary to activate transcription. If PTBA treatment facilitates activation of the RA pathway, then expression of genes responsive to RA signaling should change. […] In a previous study, cmlc2 expression was assessed for RAdependent effects in 18-somite embryos (Keegan, B. R., Feldman, J. L., Begemann, G., Ingham, P. W. & Yelon, D. Retinoic acid signaling restricts the cardiac progenitor pool. Science 307, 247-249, (2005)), therefore embryos were collected at the 18-somite stage for continuity. […]

[6] = system: BALB/c mice, severe IR-AKI; assay: Severe ischemia-reperfusion AKI (IR-AKI); type: in vivo, mouse; conditions: 7 days at 50 mg/ml starting 24 hrs after severe IR
Description: Surgeries were performed on a water-bath heated platform at 38° C. on 10-12 week old male BALB/c mice. For moderate IR-AKI, mice underwent a right nephrectomy followed by left renal pedicle clamping (800 μm pressure clamp, FST 18052-03). The clamp was released after 26 minutes, and tissue reperfusion was confirmed before completing the surgery. Mice were treated daily with indicated doses of compounds or equivalent volume of 20% 2-hydroxypropyl-β-cyclodextrin in water as vehicle control starting 24 h after injury. Since initial injury with this model is variable, mice were randomly allocated vehicle or m4PTB treatment if their serum creatinine levels were 0.8 to 1.2 mg/dl 24 h post IR injury. Other mice were excluded from further analysis and euthanized. To induce severe IR-AKI, mice underwent left renal pedicle clamping for 30 minutes and delayed contralateral nephrectomy was performed after 8 days.
For mouse studies, kidney sections were stained using Periodic Acid-Schiff (PAS) to assess renal tubular injury. Tubular injury (casts, dilated tubules, epithelial cell blebbing, and vacuolization, loss of brush borders or nuclei) was scored as described. Sirius red staining was performed using an established protocol used to evaluate renal fibrosis/collagen accumulation in kidney sections. To quantify Sirius red staining we used an Olympus BX-41 microscope equipped with an Olympus DP-72 digital camera system and polarizing light filter. Results are expressed as the mean percent fibrosis for all of the images per slide region (Sirius red positive/total surface area).
We used of 2-hydroxypropyl-β-cyclodextrin (CD, Sigma), a low toxicity drug formulation vehicle that has been well characterized and used extensively as a hydrophobic drug delivery vehicle. We could achieve concentrations of up to ˜12 mg/ml of PTBA analogues in 20% CD in water (100 mg/kg in volumes of ˜150-250 μl), and daily IP injections with 200 μl 20% CD in water had no effect on renal functional recovery following IR-AKI. Therefore all studies were performed using compounds dissolved in 20% CD. To assess dosing and biological activity of PTBA analogues in mice, CD1 mice were injected with varying doses of compounds IP and kidneys isolated at different time point for histone extraction and analysis of histone H4 acetylation, a marker of HDAC inhibitor activity, as outlined below. Based on results of these studies, mice were treated daily with 1, 10, 50 or 100 mg/kg of compound or equivalent volume of 20% CD vehicle control starting 24 h after injury.
˜30 μl blood was obtained by tail vein bleed at different time points, and serum samples frozen after confirming that they had not undergone hemolysis (which interferes with enzymatic analysis for serum creatinine). Serum creatinine was evaluated in duplicate samples using a commercially available enzymatic cascade assay (Pointe Scientific, requires only ˜7 μl of serum). […] Blood Urea Nitrogen (BUN) was determined in duplicate samples using a colorimetric enzymatic assay kit (Infinity Urea, Thermo Scientific), and spot urinary albumin/creatinine ratios determined using a mouse albumin ELISA and urinary creatinine assay kit (Albuwell and Creatinine Companion, Exocell).
Compounds 22, 25, 29, 36, and 186 were injected for 7 days at […] starting 24 hrs after severe IR treatment. […] Fibrotic (scar) tissue was measured using Sirus Red after 28 days for various markers of fibrosis.

## O=C(O)CCCSc1ccccc1 [PTBA, 4-(phenylthio)butanoic acid]
[1]; 3 μM
  embryos with unchanged fli1a expression: 97%
[1]; 3 μM PTBA (slightly decreased), 25 μM PBA, 200 nM TSA
  embryos with decreased myod1 expression: 95%
[1]; 3 μM PTBA, 25 μM PBA
  embryos with increased ntla expression: 88%
[2]
  podocyte viability (% of DMSO control): ≥ 50%
[3]
  increase in ntla expression (qPCR): 80%
  increase in pax8 expression (qPCR): 50%
  lhx1a relative transcript (qPCR): three-fold increase
  pax2a expression (qPCR): almost two-fold increase
Zebrafish larvae; 3 μM
  death by 72 hpf: without causing significant death
Zebrafish larvae; 3 μM, treatment initiated at 15 somites or later
  edema in 72 hpf larvae: lack of edema
Zebrafish larvae; 10 μM, larvae at 72 hpf
  phenotype in initial chemical screen: generated pericardial edema
Zebrafish larvae; 10 μM, n=90
  death by 72 hpf: died before 72 hpf
Zebrafish larvae; treated from 2 hpf, 3 μM PTBA, 25 μM PBA, 200 nM TSA
  larvae with edemic phenotype / pericardial edema at 72 hpf: 92%
pronephros
  embryos with expansion of cdh17: 89%
  expansion of slc4a4: 92%
  expansion of slc12a1: 64%
  expansion of wt1a: 74%
[4]; 5 mM compound, 10 μg HeLa extract
  HDAC activity, % of the control value: 30%
[4]; millimolar concentrations
  reduction of HDAC activity: 70%
[5]; 3 μM, 10-somite embryos
  embryos with expanded pax2a expression: 95%
[5]; 3 μM, treatment begun at 16.5 hpf (15 somites)
  pax2a expression at 24 hpf: no kidney field expansion
[5]; 3 μM, treatment initiated between 2 hpf and 14 hpf (10 somites)
  pax2a expression at 24 hpf: expanded pax2a expression
[5]; screen hits, data not shown
  effect on size of the kidney field / renal markers (in situ hybridization): appeared to expand the expression of some renal markers
cyp26a1, cmlc2
  embryos with decreased cmlc2 expression: 100%
  embryos with increased cyp26a1 expression: 100%

## COC(=O)CCCSc1ccccc1 [UPHD-00025, methyl 4-(phenylsulfanyl) butanoate]
[6]
  fibrosis after 28 days (Sirus Red, markers of fibrosis): most reduction in fibrosis
  serum creatinine at day 9: better activity
